How the values were obtained:
human TRPV1 [1] = target: T1, human TRPV1 (Homo sapiens, UniProt Q8NER1); assay: Capsaicin assay; assay type: cell-based
human TRPV1 [2] = target: T1, human TRPV1; assay: pH assay; assay type: cell-based; details: hTRPV1 in CHO cells, versus compound 2
[3] = test system: panel of 135 other receptors and enzymes (CEREP); assay: Selectivity panel; details: 10 µM
human TRPV1 [4] = target: T1, human TRPV1; assay: [3H]resiniferatoxin binding; details: data not shown
[5] = test system: CCI-induced cold allodynia in rats; assay: Rat Bennett model of neuropathic pain; assay type: in vivo; details: po
male NMRI mice = assay: Capsaicin induced hypothermia in mice; assay type: in vivo, mouse; details: 0.3 mg/kg oral, 15 min before 3 mg/kg ip capsaicin
C57BL/6J wild type mice = assay: Body temperature in wild type mice; assay type: in vivo, mouse; details: 1 mg/kg oral, 45 min and 60 min post administration
TRPV1 knockout mice = assay: Body temperature in TRPV1 knock-out mice; assay type: in vivo, mouse; details: 1 mg/kg oral

T1 sequence (Q8NER1 whole entry): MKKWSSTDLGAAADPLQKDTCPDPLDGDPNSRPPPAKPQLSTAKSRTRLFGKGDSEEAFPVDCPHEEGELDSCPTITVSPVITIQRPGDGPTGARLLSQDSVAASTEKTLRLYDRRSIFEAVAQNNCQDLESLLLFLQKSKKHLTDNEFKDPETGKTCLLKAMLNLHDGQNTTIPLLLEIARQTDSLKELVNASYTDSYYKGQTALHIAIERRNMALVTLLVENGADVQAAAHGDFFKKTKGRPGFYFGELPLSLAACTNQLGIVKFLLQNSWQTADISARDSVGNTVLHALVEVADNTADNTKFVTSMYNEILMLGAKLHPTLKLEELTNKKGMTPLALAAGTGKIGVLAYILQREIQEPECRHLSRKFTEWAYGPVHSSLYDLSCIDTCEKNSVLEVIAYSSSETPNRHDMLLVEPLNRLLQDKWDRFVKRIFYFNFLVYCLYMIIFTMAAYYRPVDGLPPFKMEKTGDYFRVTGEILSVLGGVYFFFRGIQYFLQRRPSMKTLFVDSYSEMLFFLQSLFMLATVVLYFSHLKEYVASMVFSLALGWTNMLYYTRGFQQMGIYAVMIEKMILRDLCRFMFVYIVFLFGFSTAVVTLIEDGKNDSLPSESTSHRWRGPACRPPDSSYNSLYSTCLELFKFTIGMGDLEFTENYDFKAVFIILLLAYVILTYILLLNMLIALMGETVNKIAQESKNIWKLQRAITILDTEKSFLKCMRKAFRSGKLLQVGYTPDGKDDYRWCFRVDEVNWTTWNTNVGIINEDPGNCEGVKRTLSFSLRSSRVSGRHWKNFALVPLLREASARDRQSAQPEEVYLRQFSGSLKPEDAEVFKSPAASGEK

- fold more potent than 2 over all four TRPV1 activators (human TRPV1 [1]; capsaicin, pH, heat (45°C) and NADA, versus compound 2): 140–660 fold
- fold more potent than lead 3 for capsaicin antagonism (human TRPV1 [1]; hTRPV1 in CHO cells, versus compound 3): ~20 fold
- fold better than 2 for pH antagonism (human TRPV1 [2]): 200 fold
- number of targets not negative in selectivity panel [3]: 7
- number of targets with greater than 50% inhibition [3]: 3
- body temperature increase (C57BL/6J wild type mice): about 1.3 ± 0.1 °C
- hyperthermic response (TRPV1 knockout mice): completely absent
Structure (SMILES): CC1CCN(c2nc(C(F)(F)F)ccc2CNC(=O)[C@@H](C)c2ccc(NS(C)(=O)=O)c(F)c2)CC1 [Compound 49S, (S)-2-(3-Fluoro-4-(methylsulfonamido)phenyl)-N-((2-(4-methylpiperidin-1-yl)-6-(trifluoromethyl)pyridin-3-yl)methyl)propanamide]
- inhibition of [3H]resiniferatoxin binding to human TRPV1 (human TRPV1 [4]): inhibited
- side effects like sedation or decreased locomotion [5]: not observed
- effect on capsaicin induced decrease of body temperature (male NMRI mice): completely inhibited
